Each structure is given as a SMILES string.

The test concerns the target T1, α4β1/VCAM-1 (Homo sapiens, UniProt P05556+P13612).
T1 construct: The Jurkat (VCAM-1 assays) and HSB (ICAM-1 assays) cell lines were obtained from American Type Culture Collection; endogenous in cells; host or cells: Jurkat (ATCC)
Briefly: Static cell adhesion assay, Jurkat cells on VCAM-1 (VLA-4 agonist activity). It is filed as cell-based. The settings on record: for Group against VCAM: EC50 relative to THI0349 (average 11 uM) run on the same plate, Jurkat cells, 50% FBS; for EC50: assay conditions reported herein, in the presence of serum, read-out: EC50 against VCAM. The procedure: For in vitro cell adhesion assays, compounds were dissolved in DMSO to make a series of stock solutions such that a 1:100 dilution in assay buffer would yield the desired final working concentrations in 1% DMSO (vehicle). Human VCAM-1 and ICAM-1 were purchased from R&D Systems (Minneapolis, MN). The Jurkat (VCAM-1 assays) and HSB (ICAM-1 assays) cell lines were obtained from American Type Culture Collection (Manassas, VA) and were maintained in recommended culture media.
Assays were performed as previously described in Vanderslice et al., (2010), Biochem Biophys Res Commun 400, 619-624; and Vanderslice et al., (2013) J Biol Chem 288, 19414-19428. VCAM-1 or ICAM-1 ligand in 50 μL of 50 mM Tris-HCl (pH 7.4), 150 mM NaCl, (TBS) was added to wells of a 96-well plate and allowed to coat overnight at 4° C. To maximize the window to evaluate agonist activity, a sub-optimal coating concentration of ligand was used, typically 0.5 and 5 μg/mL in 50 μL TBS for VCAM-1 and ICAM-1 respectively. This ligand concentration corresponded approximately to that which would yield <5% adhesion as determined by dose-response curves. Briefly, 2×10^6 cells were labeled for 30 minutes with calcein-AM (Molecular Probes), washed, resuspended in binding buffer, and added to triplicate wells of ligand-coated plates (2×10^5 cells/well) that had been blocked with 2% BSA. After a 30-minute incubation at 37° C., the plates were washed 3 times with binding buffer, the adherent cells were lysed, and fluorescence was measured on a Tecan Safire^2 plate reader. The binding buffer was PBS with 1 mM MgCl2, 50% FBS for α4β1/VCAM-1 assays and PBS with 2 mM MgCl2, 5 mM EGTA, 50% FBS for αLβ2/ICAM-1 assays. EC50 is defined as the concentration of compound required to achieve 50% of the maximal response.

T1 sequence (P13612 34-1032): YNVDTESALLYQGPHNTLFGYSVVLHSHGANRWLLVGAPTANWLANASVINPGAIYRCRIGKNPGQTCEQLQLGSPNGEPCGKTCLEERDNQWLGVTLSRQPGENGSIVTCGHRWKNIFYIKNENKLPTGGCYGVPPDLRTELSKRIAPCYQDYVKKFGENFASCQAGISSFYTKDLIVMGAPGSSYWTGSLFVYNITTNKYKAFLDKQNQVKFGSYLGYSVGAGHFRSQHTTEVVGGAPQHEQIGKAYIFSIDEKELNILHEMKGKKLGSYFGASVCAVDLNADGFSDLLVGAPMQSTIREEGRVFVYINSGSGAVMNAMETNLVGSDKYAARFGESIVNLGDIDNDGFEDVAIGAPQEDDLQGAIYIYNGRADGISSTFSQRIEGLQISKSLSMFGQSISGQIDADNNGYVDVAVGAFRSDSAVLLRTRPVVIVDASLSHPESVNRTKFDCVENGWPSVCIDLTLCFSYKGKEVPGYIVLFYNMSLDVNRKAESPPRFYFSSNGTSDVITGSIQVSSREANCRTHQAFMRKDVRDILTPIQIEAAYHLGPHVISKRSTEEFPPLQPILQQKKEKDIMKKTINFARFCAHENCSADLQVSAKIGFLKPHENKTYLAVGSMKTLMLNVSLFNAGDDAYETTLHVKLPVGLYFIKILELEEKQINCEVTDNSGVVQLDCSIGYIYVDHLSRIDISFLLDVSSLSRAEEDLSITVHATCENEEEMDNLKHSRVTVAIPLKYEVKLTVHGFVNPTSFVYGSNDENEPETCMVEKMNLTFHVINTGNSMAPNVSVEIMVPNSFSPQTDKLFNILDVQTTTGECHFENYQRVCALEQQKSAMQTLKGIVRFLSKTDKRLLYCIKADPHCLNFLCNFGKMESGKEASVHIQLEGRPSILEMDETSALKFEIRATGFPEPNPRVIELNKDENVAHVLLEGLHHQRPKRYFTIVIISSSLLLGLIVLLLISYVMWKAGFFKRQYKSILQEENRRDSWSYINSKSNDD
T1 sequence (P05556 21-798): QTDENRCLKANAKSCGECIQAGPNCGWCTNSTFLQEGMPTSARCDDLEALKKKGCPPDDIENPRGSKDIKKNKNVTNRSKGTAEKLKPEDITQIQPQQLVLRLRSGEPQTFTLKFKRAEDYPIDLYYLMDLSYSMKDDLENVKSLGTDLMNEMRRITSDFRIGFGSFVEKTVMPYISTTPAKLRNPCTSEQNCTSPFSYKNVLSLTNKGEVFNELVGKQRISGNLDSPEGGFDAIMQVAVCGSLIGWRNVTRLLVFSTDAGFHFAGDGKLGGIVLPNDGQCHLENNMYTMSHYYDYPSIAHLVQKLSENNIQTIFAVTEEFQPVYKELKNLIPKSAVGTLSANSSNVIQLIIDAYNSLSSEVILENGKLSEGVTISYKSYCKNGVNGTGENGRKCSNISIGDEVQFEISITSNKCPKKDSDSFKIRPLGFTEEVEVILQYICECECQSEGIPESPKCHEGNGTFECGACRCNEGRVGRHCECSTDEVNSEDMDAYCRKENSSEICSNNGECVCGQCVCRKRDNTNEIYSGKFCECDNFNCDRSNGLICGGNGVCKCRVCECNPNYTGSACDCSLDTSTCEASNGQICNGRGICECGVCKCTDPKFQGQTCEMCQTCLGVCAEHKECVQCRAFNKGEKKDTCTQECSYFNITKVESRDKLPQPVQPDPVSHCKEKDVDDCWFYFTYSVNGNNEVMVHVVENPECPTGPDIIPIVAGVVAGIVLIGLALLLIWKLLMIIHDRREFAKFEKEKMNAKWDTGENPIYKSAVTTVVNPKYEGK

As for `COc1cccc(CN(Cc2cccc(OC)c2)c2nc(COC3CCOCC3)cs2)c1` [Compound 122, N,N-bis(3-methoxybenzyl)-4-((tetrahydro-2H-pyran-4-yloxy)methyl)thiazol-2-amine], the “Group against VCAM” value was “II (Group II is more than twice that of THI0349 but less than five times THI0349's EC50)”.

Broadly, the EC50 is the concentration that produces a half-maximal response. In the case of `O=C(OCCOCCOCCOC(=O)N(Cc1cccs1)Cc1cccs1)N(Cc1cccs1)Cc1cccs1` [THI0349, reference compound], the EC50 came to 11 µM.

For `COc1cccc(CN(Cc2cccc(OC)c2)c2nc(COCCOC3CCOCC3)cs2)c1` [Compound 131, N,N-bis(3-methoxybenzyl)-4-((2-(tetrahydro-2H-pyran-4-yloxy)ethoxy)methyl)thiazol-2-amine], the “Group against VCAM” value is recorded as “I (Group I maintains at least the same potency or better up to more than twice that of the EC50 of THI0349 ran on the same plate)”.

In the case of `COc1cccc(CN(Cc2cccc(OC)c2)c2nc(CNC3CCOCC3)cs2)c1` [Compound 128, N,N-bis(3-methoxybenzyl)-4-((tetrahydro-2H-pyran-4-ylamino)methyl)thiazol-2-amine], the “Group against VCAM” value is on record as “I (Group I maintains at least the same potency or better up to more than twice that of the EC50 of THI0349 ran on the same plate)”.

With `COc1cccc(CN(Cc2cccc(OC)c2)c2nc(CNC3CCN(C)CC3)cs2)c1` [Compound 126, N,N-bis(3-methoxybenzyl)-4-((1-methylpiperidin-4-ylamino)methyl)thiazol-2-amine], the “Group against VCAM” value is reported as “III (Group III more than five times the EC50 of THI0349)”.

As to `CCCC[C@@H](COC(=O)N(Cc1cccs1)Cc1cccs1)NC(=O)N[C@@H](CC(=O)OC)c1ccc2c(c1)OCO2` [THI0019, reference compound], the EC50 was 33 µM.

For `COc1ccc(CCNC(=O)c2csc(N(Cc3cccc(OC)c3)Cc3cccc(OC)c3)n2)cc1` [Compound 21, 2-(bis(3-methoxybenzyl)amino)-N-(4-methoxyphenethyl)thiazole-4-carboxamide], the “Group against VCAM” value is given as “I (Group I maintains at least the same potency or better up to more than twice that of the EC50 of THI0349 ran on the same plate)”.

Regarding `COc1cccc(CN(Cc2cccc(OC)c2)c2nc(CN(C)C3CCOCC3)cs2)c1` [Compound 125, N,N-bis(3-methoxybenzyl)-4-((methyl(tetrahydro-2H-pyran-4-yl)amino)methyl)thiazol-2-amine], the “Group against VCAM” value is “II (Group II is more than twice that of THI0349 but less than five times THI0349's EC50)”.

For `COc1cccc(CN(Cc2cccc(OC)c2)c2nc(COC3COC3)cs2)c1` [Compound 123, N,N-bis(3-methoxybenzyl)-4-((oxetan-3-yloxy)methyl)thiazol-2-amine], the “Group against VCAM” value is “II (Group II is more than twice that of THI0349 but less than five times THI0349's EC50)”.

`COc1cccc(CN(Cc2cccc(OC)c2)c2nc(COCC3CCOCC3)cs2)c1` [Compound 124, N,N-bis(3-methoxybenzyl)-4-(((tetrahydro-2H-pyran-4-yl)methoxy)methyl)thiazol-2-amine]: the “Group against VCAM” value was “II (Group II is more than twice that of THI0349 but less than five times THI0349's EC50)”.

Take `COc1cccc(CN(Cc2cccc(OC)c2)c2nc(CNCC3CCN(C)CC3)cs2)c1` [Compound 130, N,N-bis(3-methoxybenzyl)-4-(((1-methylpiperidin-4-yl)methylamino)methyl)thiazol-2-amine]: the “Group against VCAM” value was “III (Group III more than five times the EC50 of THI0349)”.

Consider `CCOC(=O)c1csc(N(Cc2cccc(OC)c2)Cc2ccc3nc[nH]c3c2)n1` [Compound 120, ethyl 2-(((1H-benzo[d]imidazol-6-yl)methyl)(3-methoxybenzyl)amino)thiazole-4-carboxylate], for which the “Group against VCAM” value is “III (Group III more than five times the EC50 of THI0349)”.

On to `COc1cccc(CN(Cc2cccc(OC)c2)c2nc(COCC3COC3)cs2)c1` [Compound 129, N,N-bis(3-methoxybenzyl)-4-((oxetan-3-ylmethoxy)methyl)thiazol-2-amine], for which the “Group against VCAM” value is on record as “II (Group II is more than twice that of THI0349 but less than five times THI0349's EC50)”.

Values taken from patent US20240360113A1, “AMINOARYL-INTEGRIN AGONISTS COMPOUNDS” (Texas Heart Institute, priority 2021, published 2024).
